Measured values from US8546451B2 (priority 2005, dated 2013).
Where “and” joins values, the source holds several entries; their conditions need not be identical. Equal entries are not always repeated.

Key:
[1] = biological target: glucocorticoid receptor (GR) (Rattus norvegicus (Rat), UniProt P06536); assay: DES versus Compound IV, GR crossreaction (FIG. 12A); type: cell-based
androgen receptor (AR) = androgen receptor (AR) (Rattus norvegicus (Rat), UniProt P15207); assay: DES versus Compound IV, AR crossreaction (FIG. 12B); type: cell-based
Chain of androgen receptor (AR) (P15207 whole entry S389L): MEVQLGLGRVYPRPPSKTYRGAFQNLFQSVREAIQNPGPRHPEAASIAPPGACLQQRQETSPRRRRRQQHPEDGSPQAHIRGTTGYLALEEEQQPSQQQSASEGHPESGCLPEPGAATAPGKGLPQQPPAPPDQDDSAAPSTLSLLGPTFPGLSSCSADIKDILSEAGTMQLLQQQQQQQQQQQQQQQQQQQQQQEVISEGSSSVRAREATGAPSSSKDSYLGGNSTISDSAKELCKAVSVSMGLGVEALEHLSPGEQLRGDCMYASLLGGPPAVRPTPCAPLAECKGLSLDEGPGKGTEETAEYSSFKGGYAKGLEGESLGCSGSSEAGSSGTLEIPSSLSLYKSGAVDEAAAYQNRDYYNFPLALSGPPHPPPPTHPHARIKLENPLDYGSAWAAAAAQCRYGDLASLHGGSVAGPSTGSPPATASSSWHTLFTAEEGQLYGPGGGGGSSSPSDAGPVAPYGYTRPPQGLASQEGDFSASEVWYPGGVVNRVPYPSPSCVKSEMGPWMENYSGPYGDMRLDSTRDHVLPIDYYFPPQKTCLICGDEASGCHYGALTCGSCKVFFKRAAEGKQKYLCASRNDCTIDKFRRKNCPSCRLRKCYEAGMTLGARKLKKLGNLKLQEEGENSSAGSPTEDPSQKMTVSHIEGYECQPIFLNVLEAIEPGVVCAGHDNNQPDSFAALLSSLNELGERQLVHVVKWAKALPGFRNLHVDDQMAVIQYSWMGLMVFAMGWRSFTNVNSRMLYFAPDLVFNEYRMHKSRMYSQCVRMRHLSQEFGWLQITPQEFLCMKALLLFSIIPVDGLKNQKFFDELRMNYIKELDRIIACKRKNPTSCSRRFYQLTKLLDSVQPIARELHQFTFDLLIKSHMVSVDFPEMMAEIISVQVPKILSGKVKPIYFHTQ

[2] = biological target: mineralocorticoids receptor (MR) (Rattus norvegicus (Rat), UniProt P22199); assay: Cross-reactivity transcriptional activation assay, MR; type: cell-based; settings: agonist and antagonist modes
Chain of mineralocorticoids receptor (MR) (P22199 whole entry, canonical isoform): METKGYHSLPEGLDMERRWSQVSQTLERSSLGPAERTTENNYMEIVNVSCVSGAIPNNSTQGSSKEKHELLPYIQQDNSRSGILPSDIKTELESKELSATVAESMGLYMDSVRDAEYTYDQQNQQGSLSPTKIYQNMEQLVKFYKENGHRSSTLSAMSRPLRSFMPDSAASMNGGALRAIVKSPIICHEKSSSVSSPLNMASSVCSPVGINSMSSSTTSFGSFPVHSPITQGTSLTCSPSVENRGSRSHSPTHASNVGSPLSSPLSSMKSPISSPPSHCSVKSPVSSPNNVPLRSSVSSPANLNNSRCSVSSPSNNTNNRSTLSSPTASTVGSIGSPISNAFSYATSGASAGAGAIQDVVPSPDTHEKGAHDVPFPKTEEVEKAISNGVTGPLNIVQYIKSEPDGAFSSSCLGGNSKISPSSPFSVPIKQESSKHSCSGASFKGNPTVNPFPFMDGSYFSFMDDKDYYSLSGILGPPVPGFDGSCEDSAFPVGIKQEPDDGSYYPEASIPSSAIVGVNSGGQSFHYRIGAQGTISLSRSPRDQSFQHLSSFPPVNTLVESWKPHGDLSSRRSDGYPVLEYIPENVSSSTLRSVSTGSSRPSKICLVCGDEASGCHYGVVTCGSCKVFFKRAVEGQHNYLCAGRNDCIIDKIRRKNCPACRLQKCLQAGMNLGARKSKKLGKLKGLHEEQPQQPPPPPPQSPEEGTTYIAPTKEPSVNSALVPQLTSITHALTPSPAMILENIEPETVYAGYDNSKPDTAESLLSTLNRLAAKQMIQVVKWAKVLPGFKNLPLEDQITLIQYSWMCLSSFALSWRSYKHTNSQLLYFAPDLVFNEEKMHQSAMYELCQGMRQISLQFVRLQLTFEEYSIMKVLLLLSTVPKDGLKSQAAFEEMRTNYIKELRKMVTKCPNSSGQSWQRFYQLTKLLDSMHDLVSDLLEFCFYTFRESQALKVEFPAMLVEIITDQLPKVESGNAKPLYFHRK
Excerpt: (§1) Compound IV was screened for cross-reactivity against rat isoforms of glucocorticoid receptor (GR), mineralocorticoids receptor (MR), progesterone receptor (PR), androgen receptor (AR) and human isoforms of farnesoid X receptor (FXR), liver X receptor (LXR), peroxisome proliferator-activated receptors (PPAR-α and PPAR-γ), and retinoid X receptor (RXR-α) in both agonist and antagonist modes in transcriptional activation assays.

serum testosterone = assay: Recovery of testosterone levels following suppression in rats; type: in vivo, Sprague-Dawley rats
Excerpt: Thirty-five (35) male Sprague-Dawley rats weighing approximately 200 g were maintained on a 12-h light/dark cycle with food (2016 Teklad Global 16% Protein Rodent Diet, Harlan, Madison, Wis.) and water available ad libitum. The animal protocol was reviewed and approved by the Institutional Animal Care and Use Committee of the University of Tennessee.
The test article for this study was weighed and dissolved in PEG 300 (100%) (Acros Organics, NJ) to prepare the appropriate dose formulations. Animals were randomly assigned to one of the ten treatment groups (n =5 animals/group). The animals were housed in groups of 2 to 3 animals per cage. Group 1 was sacrificed at the initiation of the study (Day 1) for determination of baseline testosterone levels in intact animals. Groups 2-7 received daily doses of 1, 3, or 30 mg/kg via oral gavage (˜200 uL) for three days. Groups 2, 3, and 4 were sacrificed on Day 4 to measure maximal testosterone suppression. Groups 5, 6, and 7 were allowed to recover for 14 days with a drug free washout period.

PPAR-α = PPAR-α (Homo sapiens (Human), UniProt Q07869); assay: Cross-reactivity transcriptional activation assay, PPAR-α; type: cell-based; settings: agonist and antagonist modes
Chain of PPAR-α (Q07869 whole entry): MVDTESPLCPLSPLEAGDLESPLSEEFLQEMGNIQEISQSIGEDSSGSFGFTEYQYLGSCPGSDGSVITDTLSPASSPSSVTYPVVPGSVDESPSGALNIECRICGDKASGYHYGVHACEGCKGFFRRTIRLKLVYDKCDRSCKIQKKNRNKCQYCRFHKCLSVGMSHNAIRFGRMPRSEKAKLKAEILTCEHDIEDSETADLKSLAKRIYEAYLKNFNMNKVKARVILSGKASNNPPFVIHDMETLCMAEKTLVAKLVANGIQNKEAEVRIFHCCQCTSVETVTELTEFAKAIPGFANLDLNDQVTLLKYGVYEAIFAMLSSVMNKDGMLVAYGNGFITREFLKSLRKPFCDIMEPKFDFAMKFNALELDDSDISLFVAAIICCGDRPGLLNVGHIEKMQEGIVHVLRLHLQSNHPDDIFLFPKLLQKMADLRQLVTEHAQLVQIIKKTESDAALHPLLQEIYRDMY
Excerpt: as §1

[3] = biological target: ER-β ligand binding domain (LBD) (Homo sapiens (Human), UniProt Q92731); assay: ER-β competitive radioligand binding assay with [3H]E2; settings: read-out: ER-β Ki
Chain of ER-β ligand binding domain (LBD) (Q92731 264-498, species assumed): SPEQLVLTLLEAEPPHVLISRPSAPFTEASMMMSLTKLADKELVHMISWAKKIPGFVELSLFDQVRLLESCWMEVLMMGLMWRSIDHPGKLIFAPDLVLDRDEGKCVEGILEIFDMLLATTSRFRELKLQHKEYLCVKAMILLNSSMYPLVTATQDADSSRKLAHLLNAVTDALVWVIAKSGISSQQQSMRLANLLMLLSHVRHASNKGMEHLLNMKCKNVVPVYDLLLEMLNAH
Description: (§2) Following incubation, plates were harvested with GF/B filters on the Unifilter-96 Harvester (PerkinElmer) and washed three times with ice-cold buffer B (50 mM Tris, pH 7.2). The filter plates were dried at room temperature, then 35 μl Microscint-O cocktail was added to each well and the filter plates were sealed with TopSeal-A. Radioactivity was counted in a TopCount® NXT Microplate Scintillation Counter using the settings for ^3H in Microscint cocktail (PerkinElmer).
(§3) E2 (determined by incubating with 10^−6 M unlabeled E2) and expressing it as a percentage of the specific binding in the absence of test compound.

[4] = test system: human peripheral blood lymphocytes; assay: Chromosomal aberrations in human peripheral blood lymphocytes in vitro; type: cell-based; settings: concentrations up to 200 μM
CYP2B6 = assay: CYP450 induction in vitro, CYP2B6; type: in vitro ADME
[5] = test system: LH, FSH, testosterone and androgen-dependent organ weights; assay: Suppression of LH and testosterone hormone levels in intact and ORX rats; type: in vivo, Sprague-Dawley rats; settings: for Testosterone levels: LLOQ 0.08 ng/mL
dogs = assay: Single and repeated oral administration toxicity in dogs; type: in vivo
Excerpt: Compound IV was well-tolerated by rats and dogs after single and repeated oral administration (up to 28 days).

rat ER-β = rat ER-β (Rattus norvegicus (Rat), UniProt Q62986); assay: ER-β transactivation assay (ERE-LUC) in HEK-293 cells; type: cell-based
Chain of rat ER-β (Q62986 whole entry): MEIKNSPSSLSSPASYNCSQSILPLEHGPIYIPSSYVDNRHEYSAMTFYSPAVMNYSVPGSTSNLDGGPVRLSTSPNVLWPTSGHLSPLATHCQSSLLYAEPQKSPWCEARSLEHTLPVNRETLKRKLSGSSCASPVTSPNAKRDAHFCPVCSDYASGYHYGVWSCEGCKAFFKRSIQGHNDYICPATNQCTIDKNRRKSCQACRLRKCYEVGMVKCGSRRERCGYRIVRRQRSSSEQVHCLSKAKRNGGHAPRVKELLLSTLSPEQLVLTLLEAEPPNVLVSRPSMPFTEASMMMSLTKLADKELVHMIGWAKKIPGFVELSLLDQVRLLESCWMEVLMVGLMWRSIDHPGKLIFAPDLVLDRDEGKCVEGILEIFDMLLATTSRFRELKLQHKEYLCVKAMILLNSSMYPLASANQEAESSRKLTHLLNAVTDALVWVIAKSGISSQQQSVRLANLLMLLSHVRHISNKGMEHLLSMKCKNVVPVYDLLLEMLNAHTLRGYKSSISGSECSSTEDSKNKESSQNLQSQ
Description: Transactivation assays in agonist and antagonist modes were performed to identify whether the compound is an agonist, antagonist or a partial.
Sequencing was performed to determine the absence of any mutations. HEK-293 cells were plated at 100,000 cells per well of a 24 well plate in Dulbecco's Minimal Essential Media (DMEM) +5% charcoal-stripped fetal bovine serum (csFBS). […] Luciferase assays were performed 48 hrs after transfection.

[6] = biological target: ER-α ligand binding domain (LBD) (Homo sapiens (Human), UniProt P03372); assay: ER-α competitive radioligand binding assay with [3H]E2; settings: read-out: ER-α Ki
Chain of ER-α ligand binding domain (LBD) (P03372 whole entry, looked up, species assumed, the tested form may be a part): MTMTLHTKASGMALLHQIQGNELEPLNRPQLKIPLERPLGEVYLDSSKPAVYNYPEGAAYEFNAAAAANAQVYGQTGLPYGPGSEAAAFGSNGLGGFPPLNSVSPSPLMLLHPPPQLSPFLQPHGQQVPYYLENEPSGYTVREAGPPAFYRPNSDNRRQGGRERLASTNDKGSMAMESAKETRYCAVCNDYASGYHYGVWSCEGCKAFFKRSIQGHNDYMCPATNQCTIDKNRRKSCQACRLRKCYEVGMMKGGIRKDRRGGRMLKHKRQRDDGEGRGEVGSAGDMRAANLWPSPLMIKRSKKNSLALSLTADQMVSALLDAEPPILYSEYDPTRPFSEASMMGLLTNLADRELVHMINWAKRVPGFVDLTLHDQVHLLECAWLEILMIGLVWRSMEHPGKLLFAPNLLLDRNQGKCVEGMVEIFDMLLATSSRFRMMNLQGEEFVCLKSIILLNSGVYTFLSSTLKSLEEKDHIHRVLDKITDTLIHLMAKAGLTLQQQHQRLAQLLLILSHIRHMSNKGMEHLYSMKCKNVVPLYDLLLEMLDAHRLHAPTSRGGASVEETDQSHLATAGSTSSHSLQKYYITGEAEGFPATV
Description: as §2, §3

[7] = Intact, 0.3 mg/kg per day s.c., 14 days
[8] = Intact, 1 mg/kg per day s.c., 14 days
[9] = Intact, 3 mg/kg per day s.c., 14 days
[10] = Intact, 10 mg/kg per day s.c., 14 days
[11] = Intact, 30 mg/kg per day s.c., 14 days
[12] = ORX, 0.3 mg/kg per day s.c., 14 days
[13] = ORX, 1 mg/kg per day s.c., 14 days
[14] = ORX, 3 mg/kg per day s.c., 14 days
[15] = ORX, 10 mg/kg per day s.c., 14 days
[16] = ORX, 30 mg/kg per day s.c., 14 days

Chain of glucocorticoid receptor (GR) (P06536 whole entry): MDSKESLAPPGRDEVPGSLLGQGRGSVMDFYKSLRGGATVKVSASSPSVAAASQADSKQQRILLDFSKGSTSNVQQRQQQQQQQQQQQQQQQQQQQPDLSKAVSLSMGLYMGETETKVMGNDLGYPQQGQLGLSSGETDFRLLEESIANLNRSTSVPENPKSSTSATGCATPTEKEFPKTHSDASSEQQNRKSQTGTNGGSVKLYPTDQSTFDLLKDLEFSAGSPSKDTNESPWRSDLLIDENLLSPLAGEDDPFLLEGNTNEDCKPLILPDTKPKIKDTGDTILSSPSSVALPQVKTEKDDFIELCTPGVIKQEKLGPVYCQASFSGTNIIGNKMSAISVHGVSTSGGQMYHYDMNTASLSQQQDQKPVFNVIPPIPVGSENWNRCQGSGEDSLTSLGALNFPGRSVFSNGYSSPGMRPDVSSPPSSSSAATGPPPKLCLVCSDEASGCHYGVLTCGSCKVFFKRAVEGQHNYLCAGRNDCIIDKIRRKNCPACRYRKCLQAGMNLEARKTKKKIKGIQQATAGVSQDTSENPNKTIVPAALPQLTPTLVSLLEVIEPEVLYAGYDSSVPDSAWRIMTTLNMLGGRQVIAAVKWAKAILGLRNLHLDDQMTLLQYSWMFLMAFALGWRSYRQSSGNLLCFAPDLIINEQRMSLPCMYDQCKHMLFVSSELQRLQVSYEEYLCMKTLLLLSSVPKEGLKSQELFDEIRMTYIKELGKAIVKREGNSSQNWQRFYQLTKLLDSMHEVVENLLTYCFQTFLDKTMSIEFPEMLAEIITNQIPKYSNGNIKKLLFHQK

O=C(c1ccc(O)c(F)c1)N(c1ccc(O)cc1)c1ccc(F)cc1 [Compound IV, 3-fluoro-N-(4-fluorophenyl)-4-hydroxy-N-(4-hydroxyphenyl)benzamide]
mutagenicity (Mutagenicity): not mutagenic
crossreaction with GR [1]: did not
crossreaction with AR (androgen receptor (AR)): did not
agonist or antagonist activity [2]: did not display any agonist or antagonist activity
serum testosterone levels (serum testosterone; 1 mg/kg oral for three days, after 14 day recovery): 3.3 ± 1.92 ng/mL
serum testosterone suppression (serum testosterone; 1 mg/kg oral for three days, no recovery): No significant suppression
serum testosterone levels (serum testosterone; 3 mg/kg oral for three days, after 14 day recovery): 3.00 ± 1.06 ng/mL
serum testosterone levels (serum testosterone; 3 mg/kg oral for three days, no recovery, baseline 6.4±3.1): 1.47 ± 0.26 ng/mL
serum testosterone levels (serum testosterone; 30 mg/kg oral for three days, after 14 day recovery): 3.8 ± 1.72 ng/mL
serum testosterone levels (serum testosterone; 30 mg/kg oral for three days, no recovery, baseline 6.4±3.1): 1.62 ± 0.49 ng/mL
reversibility of pharmacologic castration (serum testosterone; rats, within 14 days of recovery): reversible
agonist or antagonist activity (PPAR-α): did not display any agonist or antagonist activity
Ki [3]: 0.0152 ± 0.0041 µM
structural or numeric chromosomal aberrations [4]: did not induce structural or numeric chromosomal aberrations
induction of CYP2B6 (CYP2B6): does not induce
FSH [5, 7]: 17.3±6.4 ng/mL and 17.3^b ng/mL
LH [5, 7]: 0.863±0.384 ng/mL and 0.863^b ng/mL
Levator Ani Muscle weight [5, 7]: 86.9±10.0 % of Intact and 86.9^a,b % of Intact
Prostate weight [5, 7]: 84.0±19.2 % of Intact and 84.0^b % of Intact
Seminal Vesicles weight [5, 7]: 76.2±7.8 % of Intact and 76.2^a,b % of Intact
Testosterone levels [5, 7]: 2.6 ± 1.7 ng/mL
FSH [5, 8]: 15.7±7.3 ng/mL and 15.7^b ng/mL
LH [5, 8]: 0.704±0.530 ng/mL and 0.704^b ng/mL
Levator Ani Muscle weight [5, 8]: 82.1±12.1 % of Intact and 82.1^a,b % of Intact
Prostate weight [5, 8]: 75.2±20.7 % of Intact and 75.2^b % of Intact
Seminal Vesicles weight [5, 8]: 66.3±27.2 % of Intact and 66.3^a,b % of Intact
Testosterone levels [5, 8]: 1.6 ± 1.0 ng/mL
FSH [5, 9]: 18.4±7.7 ng/mL and 18.4^b ng/mL
LH [5, 9]: 0.395±0.302 ng/mL and 0.395^a,b ng/mL
Levator Ani Muscle weight [5, 9]: 65.2±4.4 % of Intact and 65.2^a % of Intact
Prostate weight [5, 9]: 68.2±8.1 % of Intact and 68.2^a,b % of Intact
Seminal Vesicles weight [5, 9]: 51.8±28.5 % of Intact and 51.8^a,b % of Intact
Testosterone levels [5, 9]: 0.7 ± 0.4 ng/mL
FSH [5, 10]: 9.2±4.0 ng/mL and 9.25^a,b ng/mL
LH [5, 10]: 0.226±0.165 ng/mL and 0.226^a,b ng/mL
Levator Ani Muscle weight [5, 10]: 57.8±11.2 % of Intact and 57.8^a % of Intact
Prostate weight [5, 10]: 45.1±20.0 % of Intact and 45.1^a,b % of Intact
Seminal Vesicles weight [5, 10]: 19.1±7.0 % of Intact and 19.1^a % of Intact
Testosterone levels [5, 10]: BLOQ
FSH [5, 11]: 6.3±1.8 ng/mL and 6.25^a,b ng/mL
LH [5, 11]: 0.236±0.176 ng/mL and 0.236^a,b ng/mL
Levator Ani Muscle weight [5, 11]: 58.1±4.7 % of Intact and 58.1^a % of Intact
Prostate weight [5, 11]: 43.6±8.8 % of Intact and 43.6^a,b % of Intact
Seminal Vesicles weight [5, 11]: 17.9±3.3 % of Intact and 17.9^a % of Intact
Testosterone levels [5, 11]: BLOQ
FSH [5, 12]: 115±17 ng/mL and 116^a ng/mL
LH [5, 12]: 15.4±2.9 ng/mL and 15.4^a ng/mL
Levator Ani Muscle weight [5, 12]: 54.5±6.6 % of Intact and 54.5^a % of Intact
Prostate weight [5, 12]: 19.0±4.2 % of Intact and 19.0^a,b % of Intact
Seminal Vesicles weight [5, 12]: 12.2±1.3 % of Intact and 12.2^a % of Intact
FSH [5, 13]: 114±22 ng/mL and 114^a ng/mL
LH [5, 13]: 13.5±2.2 ng/mL and 13.5^a ng/mL
Levator Ani Muscle weight [5, 13]: 49.6±7.0 % of Intact and 49.6^a % of Intact
Prostate weight [5, 13]: 17.4±3.4 % of Intact and 17.4^a % of Intact
Seminal Vesicles weight [5, 13]: 16.6±5.4 % of Intact and 16.6^a % of Intact
FSH [5, 14]: 65.2±31.9 ng/mL and 65.2^a ng/mL
LH [5, 14]: 6.5 ± 5.6 ng/mL and 6.5 ng/mL
Levator Ani Muscle weight [5, 14]: 53.6±10.0 % of Intact and 53.6^a % of Intact
Prostate weight [5, 14]: 19.6±6.7 % of Intact and 19.6^a % of Intact
Seminal Vesicles weight [5, 14]: 16.5±4.8 % of Intact and 16.5^a % of Intact
FSH [5, 15]: 27.6±8.2 ng/mL and 27.6^b ng/mL
LH [5, 15]: 0.425±0.135 ng/mL and 0.425^a,b ng/mL
Levator Ani Muscle weight [5, 15]: 51.1±4.9 % of Intact and 51.1^a % of Intact
Prostate weight [5, 15]: 22.9±5.4 % of Intact and 22.9^a,b % of Intact
Seminal Vesicles weight [5, 15]: 13.3±1.9 % of Intact and 13.3^a % of Intact
FSH [5, 16]: 15.1±4.1 ng/mL and 15.1^b ng/mL
LH [5, 16]: 0.368±0.119 ng/mL and 0.368^a,b ng/mL
Levator Ani Muscle weight [5, 16]: 49.2±4.2 % of Intact and 49.2^a,b % of Intact
Prostate weight [5, 16]: 20.6±2.1 % of Intact and 20.6^a,b % of Intact
Seminal Vesicles weight [5, 16]: 12.9±2.1 % of Intact and 12.9^a % of Intact
Testosterone levels ([5]; ORX, all treated groups (0.3-30 mg/kg per day)): BLOQ
doses that significantly suppressed LH levels ([5]; intact and ORX animals, vs respective controls): ≥ 10 mg/kg per day
daily doses with statistically significant LH reductions ([5]; intact animals): ≥ 3 mg/kg
doses with significant FSH reductions ([5]; intact animals): ≥ 10 mg/kg/day
doses with significant testosterone reductions ([5]; intact animals): ≥ 3 mg/kg per day
suppression of serum testosterone ([5]; intact male rats, 3, 10 and 300 mg/kg, after 24 h, 72 h and 168 h (FIG. 9)): Rapid and potent suppression
tolerability (dogs; dogs, single and repeated oral administration (up to 28 days)): well-tolerated
pathologic changes in kidney, liver, heart and other non-target-related organs (dogs; dogs, up to 28 days oral): no pathologic changes observed
toxicity findings (dogs; male or female dogs, oral, up to 28 days): no serious physical signs, body weight effects, clinical pathology changes, ophthalmologic, electrocardiographic, or histopathologic changes
ERβ activity in transient transfection assays (rat ER-β): agonist
antagonist effects on estradiol-stimulated transcriptional activation (rat ER-β; estradiol 1 nM, concentrations up to 10 μM): no antagonist effects were observed
Ki [6]: 0.0217 ± 0.0017 µM
